# Source: the supplement of paper PMC10307832
# Columns and labels:
# Assay in all cases: relative viability (nuclei count vs DMSO), 5 days (fraction); higher = more cells survive
# BI-2536 + Decitabine = compound: CC[C@@H]1C(=O)N(C)c2cnc(Nc3ccc(C(=O)NC4CCN(C)CC4)cc3OC)nc2N1C1CCCC1 [BI-2536] + Nc1ncn([C@H]2C[C@H](O)[C@@H](CO)O2)c(=O)n1 [Decitabine] (partner 2 µM)
# In short: (§1)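 Nuclei were stained with Hoechst during a one-step fixation (final 0.05% Triton X-100, 1% formaldehyde, 1 ug/ml Hoechst) carried out 5 days after dosing, then counted on 4× images. The cells, lung cancer lines in 1536-well plates, had been dosed by pin tool the day after seeding with one drug alone or a fixed anchor-drug dose plus five library-drug doses (not always all listed) in √10 steps. Relative viability is the nuclei count in treated wells divided by that in vehicle wells, and each value is the median of duplicate plates.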
# BI-2536 + Trametinib = compound: CC[C@@H]1C(=O)N(C)c2cnc(Nc3ccc(C(=O)NC4CCN(C)CC4)cc3OC)nc2N1C1CCCC1 [BI-2536] + CC(=O)Nc1cccc(-n2c(=O)n(C3CC3)c(=O)c3c(Nc4ccc(I)cc4F)n(C)c(=O)c(C)c32)c1 [Trametinib] (partner 0.02 µM)
# In short: as §1
# [1] = compound: CC1CC(=O)N(C2=CN=C(N=C2N1C3CCCC3)NC4=C(C=C(C=C4)C(=O)NC5CCN(CC5)C)OC)C [NPK76-II-72-1] + CCNC(=O)c1noc(-c2cc(C(C)C)c(O)cc2O)c1-c1ccc(CN2CCOCC2)cc1 [Luminespib] (partner 0.01 µM)
# In short: as §1
# BI-2536 + Linsitinib = compound: CC[C@@H]1C(=O)N(C)c2cnc(Nc3ccc(C(=O)NC4CCN(C)CC4)cc3OC)nc2N1C1CCCC1 [BI-2536] + C[C@]1(O)C[C@@H](c2nc(-c3ccc4ccc(-c5ccccc5)nc4c3)c3c(N)nccn32)C1 [Linsitinib] (partner 1 µM)
# In short: as §1
Cell Line,relative viability (BI-2536 + Decitabine; first compound 0.01 µM),relative viability (BI-2536 + Decitabine; first compound 0.03162 µM),relative viability (BI-2536 + Decitabine; first compound 0.1 µM),relative viability (BI-2536 + Decitabine; first compound 0.3162 µM),relative viability (BI-2536 + Decitabine; first compound 1 µM),relative viability (BI-2536 + Trametinib; first compound 0.01 µM),relative viability (BI-2536 + Trametinib; first compound 0.03162 µM),relative viability (BI-2536 + Trametinib; first compound 0.1 µM),relative viability (BI-2536 + Trametinib; first compound 0.3162 µM),relative viability (BI-2536 + Trametinib; first compound 1 µM),relative viability ([1]; first compound 0.01 µM),relative viability ([1]; first compound 0.03162 µM),relative viability ([1]; first compound 0.1 µM),relative viability ([1]; first compound 0.3162 µM),relative viability ([1]; first compound 1 µM),relative viability (BI-2536 + Linsitinib; first compound 0.01 µM),relative viability (BI-2536 + Linsitinib; first compound 0.03162 µM),relative viability (BI-2536 + Linsitinib; first compound 0.1 µM),relative viability (BI-2536 + Linsitinib; first compound 0.3162 µM),relative viability (BI-2536 + Linsitinib; first compound 1 µM)
COR-L23,0.424,0.359,0.149,0.104,0.13,0.579,0.582,0.394,0.0573,0.0949,0.655,0.789,0.746,0.711,0.761,0.961,1.06,0.605,0.104,0.0946
COR-L 105,0.688,0.686,0.542,0.352,0.322,0.463,0.454,0.394,0.267,0.297,0.782,0.642,0.934,0.508,0.704,0.829,0.915,0.946,0.277,0.312
EKVX,0.303,0.333,0.288,0.164,0.169,0.313,0.343,0.379,0.155,0.151,0.735,0.863,0.912,0.888,0.95,1.1,0.96,0.818,0.368,0.169
EMC-BAC-2,0.986,0.959,0.866,0.287,0.235,0.854,0.851,0.819,0.303,0.277,1.14,1.19,1.16,1.09,1.38,0.852,0.866,0.872,0.444,0.236
EPLC-272H,0.359,0.363,0.258,0.0826,0.131,0.286,0.261,0.191,0.12,0.166,0.161,,0.313,0.264,0.58,1.12,1.15,,0.143,0.0967
H3255,0.565,0.374,0.428,0.16,0.299,0.571,0.582,0.294,0.281,0.424,0.871,0.76,0.55,0.675,0.891,0.906,1.03,0.903,0.227,0.226
HARA,0.529,0.521,0.433,0.162,0.191,0.765,0.971,0.545,0.0894,0.156,0.854,0.831,0.668,0.439,0.895,0.984,1.2,0.969,0.0681,0.0677
HCC-15,0.652,0.504,0.246,0.124,0.151,0.389,0.319,0.364,0.128,0.125,0.226,0.256,0.275,0.16,0.318,0.921,0.965,0.815,0.28,0.143
HCC-44,1.01,0.974,0.843,0.332,0.298,1.04,1.04,1.03,0.323,0.275,0.977,1.26,0.996,1.02,1.2,0.672,0.72,0.602,0.12,0.0939
HCC-827,0.357,0.363,0.269,0.203,0.117,0.594,0.538,0.506,0.324,0.225,0.602,0.619,0.447,0.879,0.702,1.08,1.01,0.947,0.796,0.268
HOP-62,0.201,0.209,0.231,0.151,0.142,0.315,0.353,0.401,0.167,0.152,0.975,1.04,0.885,0.789,0.992,0.89,1,0.914,0.135,0.142
LC-2-ad,0.739,0.659,0.506,0.247,0.223,0.913,0.803,0.672,0.224,0.239,0.979,1.12,0.955,1.04,1.16,0.891,0.85,0.382,0.15,0.143
LCLC-97TM1,0.228,0.277,0.163,0.0912,0.0986,0.189,0.179,0.2,0.0929,0.0902,0.673,0.768,0.532,0.748,0.748,0.157,0.239,0.168,0.143,0.113
LCLC-103H,0.792,0.749,0.652,0.322,0.333,0.671,0.711,0.69,0.336,0.277,0.9,1.05,0.919,1.03,1.01,1.16,1.04,1.05,0.942,0.143
LK-2,0.255,0.254,0.134,0.0869,0.137,0.787,0.752,0.746,0.173,0.181,0.183,0.214,0.215,0.191,0.191,0.528,0.504,0.506,0.12,0.144
LOU-NH91,0.816,0.685,0.66,0.343,0.383,0.798,0.736,0.682,0.332,0.33,0.305,0.324,0.347,0.33,0.345,0.968,0.925,1.04,0.691,0.289
